The target in assay [1] is T1, JAK2 (a.a. 828-1132) (Homo sapiens, UniProt O60674).
T1 construct: JAK2 (a.a. 828-1132); His tag (N)
The experiment in a line: In vitro JAK kinase assay (HTRF, phosphorylation of biotinylated peptide), JAK2. It counts as biochemical. To be noted: for pIC50: Table F, 1 mM ATP. Put shortly: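 His-tagged catalytic domains of human JAK1 (a.a. 837-1142) and JAK2 (a.a. 828-1132), baculovirus-expressed, phosphorylate a biotinylated peptide for 1 hour at room temperature. Stopped with EDTA; detected by HTRF using SA-APC and Eu-Py20 antibody after 40 min binding; values binned as ranges.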
Background: In TR-FRET formats the signal depends on donor and acceptor labels being close together.

Assay [2] deals with human JAK1 (a.a. 837-1142) (Homo sapiens, UniProt P23458). The experiment in a line: In vitro JAK kinase assay (HTRF, phosphorylation of biotinylated peptide), JAK1. It counts as biochemical. To be noted: for pIC50: Table F, 1 mM ATP. Put shortly: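 His-tagged human JAK1 catalytic domain (a.a. 837-1142), baculovirus/insect-cell expressed, phosphorylates a biotinylated peptide for 1 h at room temperature. Reaction stopped with EDTA; product detected by HTRF (SA-APC, Eu-Py20, 40 min binding). IC50 reported as ranges.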
human JAK1 (a.a. 837-1142), sequence (P23458 849-1154): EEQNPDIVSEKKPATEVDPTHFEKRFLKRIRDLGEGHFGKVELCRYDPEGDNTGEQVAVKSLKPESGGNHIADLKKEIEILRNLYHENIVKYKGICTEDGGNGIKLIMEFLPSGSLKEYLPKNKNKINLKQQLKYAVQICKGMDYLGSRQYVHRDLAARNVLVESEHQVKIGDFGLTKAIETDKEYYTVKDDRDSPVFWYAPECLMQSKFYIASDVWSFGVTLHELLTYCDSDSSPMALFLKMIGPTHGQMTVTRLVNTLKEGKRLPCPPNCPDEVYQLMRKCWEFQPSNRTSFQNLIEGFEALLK

As a reminder, the pIC50 is −log10 of the IC50, conventionally taken in molar units. High values mean a low IC50, low ones a high IC50. For orientation: IC50 means the concentration at which inhibition is half-maximal.

pIC50: −log10 of the molar value. Read-outs that look alike come from different tables or passages of the source.

T1 sequence (O60674 828-1132): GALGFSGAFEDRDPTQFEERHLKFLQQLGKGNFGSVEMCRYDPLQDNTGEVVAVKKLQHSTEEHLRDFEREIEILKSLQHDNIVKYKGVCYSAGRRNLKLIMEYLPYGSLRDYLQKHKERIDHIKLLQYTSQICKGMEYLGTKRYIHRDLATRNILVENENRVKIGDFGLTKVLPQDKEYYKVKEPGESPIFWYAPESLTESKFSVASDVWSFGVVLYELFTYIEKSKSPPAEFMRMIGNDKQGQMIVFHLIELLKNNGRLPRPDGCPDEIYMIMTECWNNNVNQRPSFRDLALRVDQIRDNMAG

Consider `N#CC[C@]1(n2cc(-c3ncnc4[nH]ccc34)cn2)C[C@H](N2CCC(Oc3cc(CN4CCC[C@H]4CO)cc(C(F)(F)F)n3)CC2)C1` [Example 161, {trans-3-(4-{[4-{[(2S)-2-(hydroxymethyl)pyrrolidin-1-yl]methyl}-6-(trifluoromethyl)pyridin-2-yl]oxy}piperidin-1-yl)-1-[4-(7H-pyrrolo[2,3-d]pyrimidin-4-yl)-1H-pyrazol-1-yl]cyclobutyl}acetonitrile], for which the pIC50 in assay [1] was 7.00 to 7.60; in assay [2] it was over 8.00.
The matching figures for `N#CC[C@]1(n2cc(-c3ncnc4[nH]ccc34)cn2)C[C@H](N2CCC(Oc3cc(CN4CCC[C@@H]4CO)cc(C(F)(F)F)n3)CC2)C1` [Example 162, {trans-3-(4-{[4-{[(2R)-2-(hydroxymethyl)pyrrolidin-1-yl]methyl}-6-(trifluoromethyl)pyridin-2-yl]oxy}piperidin-1-yl)-1-[4-(7H-pyrrolo[2,3-d]pyrimidin-4-yl)-1H-pyrazol-1-yl]cyclobutyl}acetonitrile]: under 7.00 and over 8.00.
For `CC(C)(O)c1cc(C(=O)N2CCN([C@H]3C[C@](CC#N)(n4cc(-c5ccnc6[nH]ccc56)cn4)C3)CC2)nc(C(F)(F)F)c1` [Example 163, {trans-3-(4-{[4-(1-hydroxy-1-methylethyl)-6-(trifluoromethyl)pyridin-2-yl]carbonyl}piperazin-1-yl)-1-[4-(1H-pyrrolo[2,3-b]pyridin-4-yl)-1H-pyrazol-1-yl]cyclobutyl}acetonitrile], the negative-log IC50 (pIC50) in assay [1] is 7.00 to 7.60; in assay [2], over 8.00.
Turning to “{cis-3-(4-{[6-(1-hydroxy-1-methylethyl)-2-(trifluoromethyl)pyrimidin-4-yl]carbonyl}piperazin-1-yl)-1-[4-(1H-pyrrolo[2,3-b]pyridin-4-yl)-1H-pyrazol-1-yl]cyclobutyl}acetonitrile [Example 77]”, the 50% inhibitory concentration (IC50) in assay [1] (read-out: JAK2 IC50 (nM) at 1 mM ATP, Table F) is 25 to 100 nM; in assay [2] (read-out: JAK1 IC50 (nM) at 1 mM ATP, Table F), under 10 nM.

Source of the values: patent US10640506B2, “Cyclobutyl substituted pyrrolopyridine and pyrrolopyrimidines derivatives as JAK inhibitors” (Incyte Corporation, priority 2010, dated 2020).
